Measurements as given in US20150343016A1, “CHEMICAL ENTITIES AND THERAPEUTIC USES THEREOF” (The Regents of the University of Colorado, a body corporate, priority 2010, published 2015).

System: UM-SCC19 Head and Neck Cancer cell line
Assay: MTT assay, Bouvardin with ionizing radiation, UM-SCC19 (pre-treated)
Format: cell-based, human
Conditions: UM-SCC19 cells
Procedure: “Combination Index” computation. Combination Indices were calculated using CalcuSyn software (Biosoft), which uses the method of Chou and Talalay. This method first computes drug-induced effect using the Hill Equation: where E is the measured effect; C is the drug concentration; Emax is the full range of drug effect, usually at or near 100%; IC50 is the drug concentration producing the median effect of 50%; and n is the curve shape parameter describing the steepness of the concentration-effect relationship. The Chou and Talalay method then linearizes the Hill Equation by logarithmic transformation as: where fu is the fraction of cells left unaffected after drug exposure, fa is the fraction of cells affected by the exposure, C is the drug concentration used, Cm is the concentration to achieve the median effect, and n is the curve shape parameter. Cm and n are equivalent to IC50 and n, respectively, in the Hill Equation. The values of n (obtained from the slope), nlog(Cm) (obtained from the absolute value of the intercept), and, therefore, Cm are obtained by plotting log(fu−1−1) versus log(C). These numbers are then used to compute the Combination Index (CI) according to the formula: CI=(D)1/(Dx)1+(D)2/(Dx)2 (26). (Dx)1 and (Dx)2 are the doses required to achieve a given effect level for each treatment, i.e. a specified value of Fraction Affected or Fa. (D)1 and (D)2 are the doses of each treatment in a given combination which gives the same Fa.
The growth inhibitory effects of Bouvardin with ionizing radiation (IR) were evaluated using a modified tetrazolium salt (MTT) assay. In the MTT assay, 1,000 to 2,000 viable cells were plated in 100 uL of growth medium in 96-well plates (Corning, Ithaca, N.Y.). Following an overnight incubation, drug was added in varying concentrations and the plates were irradiated on the same day (co-treatment) or 24 hr later (pre-treatment) and incubated for 6 to 7 days. The tetrazolium salt was added at a concentration of 0.4 mg/mL to each well following the 6- to 7-day treatment. The plates were incubated with the salt for 4 hours at 37° C. At 4 hours, the medium was aspirated off, leaving the dark blue formazan product at the bottom of the wells. The reduced MTT product was solubilized by adding […] of 0.2 N HCl in 75% isopropanol, 23% MilliQ water to each well. Thorough mixing was done using a Titertek multichannel pipetman. The absorbency of each well was measured using an automated plate reader (Molecular Devices, Sunnyvale, Calif.). All experiments were done in triplicate.
MTT assays were used to determine the effect of Bouvardin (concentrations in uM) in combination with ionizing radiation (in Gy, X-axis). FIG. 14 depicts CI values for Bouvardin and radiation on 3 cell lines. Combination Index data from 3 different Head and Neck Cancer cell lines are shown. Black dashed lines represent a CI value of 1. CI values below 1 indicate synergy. 1586 and UM-SCC19 were pre-treated whereas HN31 was treated on the same day.

Question: Which “Combination Index” value (Bouvardin 0.001 uM + 1 Gy IR) does the source give for `COc1ccc(C[C@H]2C(=O)N[C@H](C)C(=O)N(C)[C@@H]3C(=O)N(C)[C@@H](Cc4ccc(O)c(c4)Oc4ccc(cc4)[C@H]3O)C(=O)N[C@@H](C)C(=O)N[C@H](C)C(=O)N2C)cc1` (stereo in doubt) [Bouvardin, bouvardin] here?
Answer: 13.885

Question: What about the “Fraction Affected” value (Bouvardin 0.001 uM + 1 Gy IR) of the same compound?
Answer: 0.143

Question: And the “Combination Index” value (Bouvardin 0.001 uM + 2 Gy IR)?
Answer: 2.245

Question: What about the “Fraction Affected” value (Bouvardin 0.001 uM + 2 Gy IR) of the same compound?
Answer: 0.28

Question: What about the “Combination Index” value (Bouvardin 0.001 uM + 4 Gy IR) of the same compound?
Answer: 1.023

Question: And the “Fraction Affected” value (Bouvardin 0.001 uM + 4 Gy IR)?
Answer: 0.386

Question: What about the “Combination Index” value (Bouvardin 0.003 uM + 1 Gy IR) of the same compound?
Answer: 5.143

Question: What about the “Fraction Affected” value (Bouvardin 0.003 uM + 1 Gy IR) of the same compound?
Answer: 0.227

Question: What about the “Combination Index” value (Bouvardin 0.003 uM + 2 Gy IR) of the same compound?
Answer: 1.22

Question: What about the “Fraction Affected” value (Bouvardin 0.003 uM + 2 Gy IR) of the same compound?
Answer: 0.366

Question: What about the “Combination Index” value (Bouvardin 0.003 uM + 4 Gy IR) of the same compound?
Answer: 0.627

Question: And the “Fraction Affected” value (Bouvardin 0.003 uM + 4 Gy IR)?
Answer: 0.466

Question: And the “Combination Index” value (Bouvardin 0.006 uM + 1 Gy IR)?
Answer: 1.696

Question: What about the “Fraction Affected” value (Bouvardin 0.006 uM + 1 Gy IR) of the same compound?
Answer: 0.354

Question: And the “Combination Index” value (Bouvardin 0.006 uM + 2 Gy IR)?
Answer: 0.762

Question: What about the “Fraction Affected” value (Bouvardin 0.006 uM + 2 Gy IR) of the same compound?
Answer: 0.448

Question: What about the “Combination Index” value (Bouvardin 0.006 uM + 4 Gy IR) of the same compound?
Answer: 0.82

Question: What about the “Fraction Affected” value (Bouvardin 0.006 uM + 4 Gy IR) of the same compound?
Answer: 0.461

Question: And the “Combination Index” value (Bouvardin 0.01 uM + 1 Gy IR)?
Answer: 1.561

Question: And the “Fraction Affected” value (Bouvardin 0.01 uM + 1 Gy IR)?
Answer: 0.395

Question: What about the “Combination Index” value (Bouvardin 0.01 uM + 2 Gy IR) of the same compound?
Answer: 0.694

Question: What about the “Fraction Affected” value (Bouvardin 0.01 uM + 2 Gy IR) of the same compound?
Answer: 0.49

Question: And the “Combination Index” value (Bouvardin 0.01 uM + 4 Gy IR)?
Answer: 0.619

Question: And the “Fraction Affected” value (Bouvardin 0.01 uM + 4 Gy IR)?
Answer: 0.521

Question: And the “Combination Index” value (Bouvardin 0.03 uM + 1 Gy IR)?
Answer: 1.414

Question: And the “Fraction Affected” value (Bouvardin 0.03 uM + 1 Gy IR)?
Answer: 0.44

Question: And the “Combination Index” value (Bouvardin 0.03 uM + 2 Gy IR)?
Answer: 0.777

Question: And the “Fraction Affected” value (Bouvardin 0.03 uM + 2 Gy IR)?
Answer: 0.511

Question: What about the “Combination Index” value (Bouvardin 0.03 uM + 4 Gy IR) of the same compound?
Answer: 0.848

Question: And the “Fraction Affected” value (Bouvardin 0.03 uM + 4 Gy IR)?
Answer: 0.515

Question: What about the “Combination Index” value (Bouvardin 0.06 uM + 1 Gy IR) of the same compound?
Answer: 1.587

Question: What about the “Fraction Affected” value (Bouvardin 0.06 uM + 1 Gy IR) of the same compound?
Answer: 0.431

Question: And the “Combination Index” value (Bouvardin 0.06 uM + 2 Gy IR)?
Answer: 1.482

Question: What about the “Fraction Affected” value (Bouvardin 0.06 uM + 2 Gy IR) of the same compound?
Answer: 0.444

Question: What about the “Combination Index” value (Bouvardin 0.06 uM + 4 Gy IR) of the same compound?
Answer: 1.01

Question: And the “Fraction Affected” value (Bouvardin 0.06 uM + 4 Gy IR)?
Answer: 0.498

Question: What about the “Combination Index” value (Bouvardin 0.1 uM + 1 Gy IR) of the same compound?
Answer: 2.102

Question: What about the “Fraction Affected” value (Bouvardin 0.1 uM + 1 Gy IR) of the same compound?
Answer: 0.437

Question: What about the “Combination Index” value (Bouvardin 0.1 uM + 2 Gy IR) of the same compound?
Answer: 1.027

Question: What about the “Fraction Affected” value (Bouvardin 0.1 uM + 2 Gy IR) of the same compound?
Answer: 0.518

Question: And the “Combination Index” value (Bouvardin 0.1 uM + 4 Gy IR)?
Answer: 1.691

Question: What about the “Fraction Affected” value (Bouvardin 0.1 uM + 4 Gy IR) of the same compound?
Answer: 0.473

Question: What about the “Combination Index” value (Bouvardin 0.3 uM + 1 Gy IR) of the same compound?
Answer: 1.313

Question: What about the “Fraction Affected” value (Bouvardin 0.3 uM + 1 Gy IR) of the same compound?
Answer: 0.523

Question: And the “Combination Index” value (Bouvardin 0.3 uM + 2 Gy IR)?
Answer: 1.347

Question: What about the “Fraction Affected” value (Bouvardin 0.3 uM + 2 Gy IR) of the same compound?
Answer: 0.524

Question: What about the “Combination Index” value (Bouvardin 0.3 uM + 4 Gy IR) of the same compound?
Answer: 1.052

Question: And the “Fraction Affected” value (Bouvardin 0.3 uM + 4 Gy IR)?
Answer: 0.558

Question: And the “Combination Index” value (Bouvardin 0.6 uM + 1 Gy IR)?
Answer: 1.704

Question: And the “Fraction Affected” value (Bouvardin 0.6 uM + 1 Gy IR)?
Answer: 0.532

Question: And the “Combination Index” value (Bouvardin 0.6 uM + 2 Gy IR)?
Answer: 1.546

Question: And the “Fraction Affected” value (Bouvardin 0.6 uM + 2 Gy IR)?
Answer: 0.545

Question: What about the “Combination Index” value (Bouvardin 0.6 uM + 4 Gy IR) of the same compound?
Answer: 1.251

Question: And the “Fraction Affected” value (Bouvardin 0.6 uM + 4 Gy IR)?
Answer: 0.573

Question: And the “Combination Index” value (Bouvardin 1 uM + 1 Gy IR)?
Answer: 13.885

Question: What about the “Fraction Affected” value (Bouvardin 1 uM + 1 Gy IR) of the same compound?
Answer: 0.143

Question: And the “Combination Index” value (Bouvardin 1 uM + 2 Gy IR)?
Answer: 2.245

Question: And the “Fraction Affected” value (Bouvardin 1 uM + 2 Gy IR)?
Answer: 0.28

Question: And the “Combination Index” value (Bouvardin 1 uM + 4 Gy IR)?
Answer: 1.023

Question: And the “Fraction Affected” value (Bouvardin 1 uM + 4 Gy IR)?
Answer: 0.386
